Tested on: Cochliobolus miyabeanus
Test: Activity against brown spot of rice caused by Cochliobolus miyabeanus, protective application
Assay type: in vivo
Conditions: individual active compound, evaluated after 6 days
Method: The active compounds, separately or jointly, were prepared as a stock solution comprising 0.25% by weight of active compound in acetone or DMSO. 1% by weight of the emulsifier Uniperol® EL (wetting agent having emulsifying and dispersing action based on ethoxylated alkylphenols) was added to this solution, and the mixture was appropriately diluted with water to the desired concentration.
Use example—Activity against brown spot of rice caused by Cochliobolus miyabeanus, protective application Leaves of rice seedlings of the cultivar “Tai-Nong 67” which had been grown in pots were sprayed to runoff point with an aqueous suspension having the concentration of active compound stated below. The next day, the plants were inoculated with an aqueous spore suspension of Cochliobolus miyabeanus. The test plants were then placed in climatized chambers at 22-24° C. and 95-99% relative atmospheric humidity for 6 days. The extent of the development of infection on the leaves was then determined visually.
The visually determined values for the percentage of infected leaf area were converted into efficacies as a % of the untreated control:
The efficacy (E) is calculated as follows using Abbot's formula: E=(1−α/β)·100 α corresponds to the fungal infection of the treated plants in % and β corresponds to the fungal infection of the untreated (control) plants in % An efficacy of 0 means that the infection level of the treated plants corresponds to that of the untreated control plants; an efficacy of 100 means that the treated plants are not infected.
The expected efficacies of the mixtures of active compounds were determined using Colby's formula [R. S. Colby, “Calculating synergistic and antagonistic responses of herbicide combinations”, Weeds, 15, 20-22 (1967)] and are compared with the observed efficacies.
Colby's formula: E=x+y−x·y/100
E expected efficacy, expressed in % of the untreated control, when using the mixture of the active compounds A and B at the concentrations a and b x efficacy, expressed in % of the untreated control, when using active compound A at the concentration a y efficacy, expressed in % of the untreated control, when using active compound B at the concentration b

## CC1CCN(c2c(-c3c(F)cc(F)cc3F)c(Cl)nc3ncnn23)CC1 [I, 5-chloro-7-(4-methylpiperidin-1-yl)-6-(2,4,6-trifluorophenyl)[1,2,4]tri-azolo[1,5-a]pyrimidine]
3.1 ppm in the spray liquor
  Efficacy in % of the untreated control: 22%
6.25 ppm in the spray liquor
  Efficacy in % of the untreated control: 56%

## CC12CC1(C)C(=O)N(c1cc(Cl)cc(Cl)c1)C2=O (stereo not shown) [II (procymidone), 3-(3,5-dichlorophenyl)-1,5-dimethyl-3-aza-bicyclo[3.1.0]hexane-2,4-dione]
6.25 ppm in the spray liquor
  Efficacy in % of the untreated control: 22%
12.4 ppm in the spray liquor
  Efficacy in % of the untreated control: 44%
